The source of these data is patent publication EP1714639A1, “Cosmetic compositions containing piperazine derivatives” (L'ORÉAL, priority 2005, dated 2006).

Molecules are shown by their SMILES.

In experiment [1] the test system is cellules musculaires striées humaines. The experiment is described as follows: nerve-muscle co-culture test (inhibition of muscle fibre contractions). The class given is cell-based. The note with it: for inhibition at 10 µM / inhibition at 100 µM: 60 s incubation, contractions counted over 30 s, triplicate, read-out: % d'inhibition des contractions. The source says: Les composés des Exemples 1 et 2 ont été testés sur un modèle de co-culture nerfs-muscles qui permet de recréer un arc moteur en innervant des cellules musculaires striées humaines avec des explants de moelle épinière et de ganglions rachidiens d'embryons de rat.
Des cellules musculaires humaines, issues de prélèvements de muscles striés de donneur sain, sont ensemencées dans des puits de 1,8 cm^2 de section (boîtes de culture de 24 puits). Après 10 jours de culture, ces cellules forment une monocouche et fusionnent. A ce stade, des explants de moelle épinière d'embryons de rat de 13 jours contenant les ganglions rachidiens sont déposées sur la culture.
La croissance des neurites est visible en dehors de l'explant de moelle épinière après un jour de culture. Les premières contractions des fibres musculaires sont observées après 5 à 6 jours de co-culture et après 3 semaines, toutes les fibres musculaires au voisinage des explants se contractent.
Le co-cultures sont utilisées après 21 jours, quand les fibres musculaires sont striées et possèdent des jonctions neuromusculaires différenciées matures.
Une fibre musculaire ayant des contractions régulières (au moins 60 contractions par minute) est alors sélectionnée dans trois puits de culture différents et le nombre de contractions est comptabilisé sur 30 secondes. Les composés testés, dilués dans le DMSO, sont ensuite incubés pendant 60 secondes dans ces puits, à la concentration de 10 µM pour le composé de l'Exemple 1 et de 10 et 100 µM pour le composé de l'Exemple 2. A la fin de l'incubation, le nombre de contractions est à nouveau comptabilisé sur 30 secondes. Le test est réalisé en triplicata.

The test system of experiment [2] is canaux calciques de type L. The experiment is described as follows: binding test on L-type calcium channels ([3H](-) D 888 displacement, verapamil site). The arrangement: species or system rat. The note with it: for % inhibition de la liaison: 1 µM in DMSO, [3H](-) D 888 0.5 nM, rat cerebral cortex homogenates, 60 min/22°C. The procedure: On a évalué la capacité des composés des Exemples 1, 4 et 5 (à 1 µM dans le DMSO) à inhiber par compétition la fixation d'[…] de canaux calciques de type L.
Les études sont réalisées à partir d'homogénats de cortex cérébral de rat (membranes isolées présentant à leur surface des canaux calciques de type L) selon la méthode décrite par Reynolds I.J. et al., 1986, J. Pharmacol. Exp. Ther., 237, p.731.
Les conditions expérimentales sont les suivantes :
D888 qui est le [^3H](-) desmethoxyverapamil sert de ligand spécifique radiomarqué et D600 qui est le chlorhydrate de (±)méthoxyvérapamil sert de molécule de référence.
La liaison spécifique d'un ligand (D888 marqué) aux récepteurs (canaux calciques de type L, site vérapamil) est définie comme la différence entre la liaison totale et la liaison non spécifique déterminée en présence d'un excès de ligand froid (non radioactif). Les résultats sont exprimés en pourcentage d'inhibition de la liaison spécifique du témoin en présence du composé testé.

A short description of experiment [3]: anti-wrinkle activity in vivo.

As for `C(=Cc1ccccc1)CN1CCN(CCCc2ccccc2)CC1` [compound 1, 1-(3-phenyl-2-propenyl)-4-(3-phenylpropyl)-piperazine], in experiment [1], the inhibition (in general, the share of the control response that was lost under treatment) at 10 µM was 65% and the inhibition at 100 µM amounted to 100%. Also, the “% inhibition de la liaison” value in experiment [2] is on record as 30%.

For `c1ccc(CCCN2CCN(CCc3ccccc3)CC2)cc1` [compound 2, 1-(2-phenylethyl)-4-(3-phenylpropyl)-piperazine], in experiment [1], the inhibition at 10 µM came out at 50% and the inhibition at 100 µM worked out at 100%. In addition, in experiment [2] (similar test, concentration 50 µM), the “inhibition de la liaison spécifique du témoin aux canaux calciques” value is listed as 50%.

Consider `OCCCN1CCN(CCCc2ccccc2)CC1` [compound 4, 1-(3-hydroxpropyl) 4-(3-phenylpropyl)-piperazine], for which the “% inhibition de la liaison” value in experiment [2] was determined as 22%.

As for `CCN1CCN(CCCc2ccccc2)CC1` [compound 5, 1-ethyl 4-(3-phenylpropyl)-piperazine], in experiment [2], the “% inhibition de la liaison” value worked out at 16%.

On to `CN1C(=O)CN=C(c2ccccc2)c2cc(Cl)ccc21` [diazépam, reference compound], for which the “contractions des fibres musculaires” value in experiment [1] (earlier finding of the applicant in this model) is listed as “inhibait les contractions des fibres musculaires”. Moreover, the activité anti-rides result in experiment [3] is recorded as “démontrée in vivo”.
